# Experimental data as given in patent publication US20050020665A1, “Pharmaceutical composition for treating multiple sclerosis” (priority 2001, published 2005).
# Where two headings read alike, the source gives them in different places.
# Legend:
# [1] = tested on: experimental allergic encephalomyelitis (EAE); settings: cited from earlier work
# MS patients [2] = settings: cited from earlier work
# MS patients [3] = settings: cited from earlier work; remark: listed apart in the source
# [4] = tested on: inflammatory reactions of MS in the animal model; settings: cited from earlier work
# [5] = tested on: patients having clinically active MS; assay: treatment trial of MS patients with zileuton (Zyflo Filmtab), three years, with brain nuclear magnetic resonance using Magnevist; type: in vivo, humans
# Protocol: 15 patients having clinically active MS were treated with zileuton in a treatment trial. 15 MS patients without this treatment served as a control. One tablet of Zyflo™Filmtab® was administered to each four times a day.
# [6] = 15 MS patients, one Zyflo Filmtab tablet four times a day, three years, compared with 15 MS patients without this treatment
compound,measurement,setting,value
Cn1cnc([N+](=O)[O-])c1Sc1ncnc2[nH]cnc12 [azothioprin],effect in the EAE animal test,[1],showed promising indications
same,effect in the treatment of MS patients,MS patients [2],not convincing
O=C(O)c1cc(/N=N/c2ccc(S(=O)(=O)Nc3ccccn3)cc2)ccc1O [azulfidine],effect of treatment in MS patients,"MS patients [3]; first 18 months of treatment, double blind study",exceptionally beneficial effect could be proven
same,effect of treatment in MS patients,MS patients [3]; three years after the end of the study,this effect could no longer be proven
same,effect in the animal model (suppression of inflammatory reactions of MS),[4],successful in the animal model
"CC(c1cc2ccccc2s1)N(O)C(N)=O (centres unmarked) [zileuton, 1-(1-benzo[b]thien-2-ylethyl)-1-hydroxy urea]",chronic progression,[5]; [6],significantly decreased
same,frequency of attacks,[5]; [6],significantly decreased
same,new or acute centres of inflammation absorbing the contrast agent (brain nuclear magnetic resonance),"[5]; every six months, contrast agent Magnevist",No new or acute centres absorbing the contrast agent could be determined
